According to patent US20240209423A1, “METHODS AND COMPOSITIONS FOR REDUCING AUTOFLUORESCENCE” (Advanced Cell Diagnostics, Inc., priority 2021, published 2024):
Values after ≈ are worked out from the molar mass of the structure shown.

Experiments:
[1] = test system: tissue autofluorescence in FFPE mouse multi-tissue arrays; experiment: Quinone compounds tested for tissue autofluorescence quenching, FFPE mouse multi-tissue arrays; details: incubated for 30 min; compared with 4×SSC untreated control slide
Description: Multiple quinone compounds were tested for tissue autofluorescence quenching effects on FFPE mouse multi-tissue arrays. After bake, deparaffinization, and pretreatment to permeabilize the tissue, 4×SSC or quinone derivative was applied to the tissue and incubated for 30 min. After washing DAPI was applied to stain the nucleus. Slides were then mounted with prolong gold and scanned using the same microscopic settings. A reduction in autofluorescence was determined by comparing the fluorescence on the quinone derivative treated slide with a 4×SSC untreated control slide.

[2] = test system: FFPE mouse multi tissue array; experiment: Quinone treatment condition optimization, RNAscope HiPlex, FFPE mouse multi tissue array
[3] = test system: autofluorescence in non-human primate fixed frozen liver tissue; experiment: RNAscope HiPlex assay with p-benzoquinone treatment, non-human primate fixed frozen liver tissue; details: 100 mM in 4×SSC, vs 4×SSC alone
[4] = test system: mouse fresh frozen tissue; experiment: RNAscope HiPlex assay with p-benzoquinone treatment, mouse fresh frozen tissue; details: 100 mM in 4×SSC
Description: (§1) RNAscope® HiPlex assays were conducted to detect four positive control genes in mouse FFPE kidney tissue. ZZ probes for 12 different targets were hybridized together to a mouse multi-tissue array prepared as formalin-fixed paraffin embedded sections, and the hybridization signals were amplified together by successive rounds of hybridization with the preamplifier and amplifier sequences. Autofluorescence quenching was performed by application of p-benzoquinone (100 mM in 4× Saline-Sodium Citrate (SSC)) onto the slides for 30 minutes at room temperature, followed by detection of four (Ppib, Ubc, Polr2a and Hprt1) of the 12 target genes using fluorescent label probes corresponding to the signal amplification systems assigned to these four target probes and the fluorophores Alexa 488, DyLight 550, DyLight 650 and Alexa 750 respectively (bottom panels). On a separate slide, 4×SSC buffer alone was used as the untreated control. Nuclei were stained with DAPI.
Yet another similar experiment was conducted using mouse fresh frozen tissue, with detection of four of the twelve targets (Polr2a, Ppib, Ubc, and Hprt1).

[5] = test system: FFPE human tumor microarray; experiment: Quinone treatment condition optimization, RNAscope HiPlex, FFPE human tumor microarray; parameters: key to the marks not given beside the values; details: 100 mM, 30 min, Polr2a, PPIB, UBC, Hprt1
Description: Major factors tested for p-benzoquinone were chemical concentration, incubation time, and fluorescent dyes.

[6] = Maximum solubility in 4×SSC; type: physicochemical; details: 4×SSC buffer, aqueous buffer
[7] = test system: autofluorescence in mouse FFPE kidney tissue; experiment: RNAscope HiPlex assay with p-benzoquinone autofluorescence quenching, mouse FFPE kidney tissue; details: 100 mM in 4× SSC, 30 minutes at room temperature, vs 4×SSC control
Description: as §1

FFPE mouse brain = experiment: Antibody compatibility with pBQ treatment (immunofluorescence), FFPE mouse brain; details: NeuN, Chicken anti NeuN 1:500, Goat anti-chicken AF555 1:500
Description: (§2) CD20 was detected in human head and neck FFPE tissue. After bake, deparaffmization, and pretreatment to permeabilize the tissue, 4×SSC (untreated control) or p-benzoquinone (pBQ) (40 mM in 4×SSC) was applied onto the tissue and incubated for 30 min. After washing, mouse anti-CD20 primary antibody (Leica Ready to Use) was applied for 1 hour at room temperature (RT). Signal was amplified by rabbit anti-mouse post primary antibody (Leica Ready to Use) and goat anti-rabbit […] secondary antibody (Leica Ready to Use) conjugated to HRP. Signal was detected using Opal 520 (Akoya Bio) diluted 1:500 in TSA buffer. The images were taken with the same exposure settings. The brightness of the pBQ treated slide was increased by two-fold to achieve optimal display.
(§3) Additional antibodies were tested for compatibility with p-benzoquinone treatment, using the same general experimental method as described above.

[8] = test system: autofluorescence in FFPE Human Brain Tissues; experiment: Quenching of endogenous and lipofuscin autofluorescence, unstained FFPE human brain tissues; details: 100 mM in 4×SSC
Description: The present methods are effective at partially reducing autofluorescence caused by lipofuscin pigment granules that are most commonly found in brain tissues. FFPE Human Brain Tissues were treated with or without pBQ and imaged without staining to reveal tissue endogenous autofluorescence.

hTMAc = experiment: Antibody compatibility with pBQ treatment (immunofluorescence), hTMAc; details: CD3, Leica mouse anti-CD3 1:200, Goat anti-rabbit AF488 1:500
Description: as §2, §3

mouse FFPE liver tissue = experiment: Dye compatibility with p-benzoquinone treatment, RNAscope, mouse FFPE liver tissue; details: p-benzoquinone applied after Amp 3
Text: To evaluate the compatibility of certain dyes, targets were detected in mouse FFPE liver tissue, using the p-benzoquinone treatment step. […] Experimentally, these targets were detected using RNAscope® double Z probes and signals were amplified using an RNAscope® amplification system (Amp 1, 2, 3), with p-benzoquinone applied after Amp 3.

[9] = test system: autofluorescence in human FFPE lung cancer tissue; experiment: RNAscope HiPlex assay with p-benzoquinone treatment, human FFPE lung cancer tissue; details: 100 mM in 4×SSC, vs 4×SSC alone
Description: as §1

[10] = test system: human head and neck FFPE tissue; experiment: CD20 immunofluorescence after p-benzoquinone treatment, human head and neck FFPE tissue; details: 40 mM in 4×SSC, 30 min, CD20, Opal 520
Description: CD20 was detected in human head and neck FFPE tissue. After bake, deparaffmization, and pretreatment to permeabilize the tissue, 4×SSC (untreated control) or p-benzoquinone (pBQ) (40 mM in 4×SSC) was applied onto the tissue and incubated for 30 min. After washing, mouse anti-CD20 primary antibody (Leica Ready to Use) was applied for 1 hour at room temperature (RT). Signal was amplified by rabbit anti-mouse post primary antibody (Leica Ready to Use) and goat anti-rabbit Alexa 488 secondary antibody (Leica Ready to Use) conjugated to HRP. Signal was detected using Opal 520 (Akoya Bio) diluted 1:500 in TSA buffer. The images were taken with the same exposure settings.

O=C1C=C(Cl)C(=O)C=C1Cl [2,5-Dichloro-1,4-benzoquinone]
Autofluorescence quenching effect [1]: Yes

COC1=CC(=O)C(OC)=CC1=O [2,5-Dimethoxy-(1,4)-benzoquinone]
Autofluorescence quenching effect [1]: No

O=C1C=C(Cl)C(=O)C(Cl)=C1 [2,6-Dichloro-1,4-benzoquinone]
Autofluorescence quenching effect [1]: Yes

COC1=CC(=O)C=C(OC)C1=O [2,6-Dimethoxy-1,4-benzoquinone]
Autofluorescence quenching effect [1]: No

CC1=CC(=O)C=C(C)C1=O [2,6-Dimethylbenzoquinone]
Autofluorescence quenching effect [1]: No

O=C1C=CC(=O)C(Cl)=C1 [2-Chloro-1,4-benzoquinone]
Autofluorescence quenching effect [1]: Yes

COC1=CC(=O)C=CC1=O [2-methoxybenzo-1,4-quinone]
Autofluorescence quenching effect [1]: Yes

Oc1ccc(O)cc1 [Hydroquinone]
Signal/noise ratio ([2]; 20 mM, 4 d, with light exposure): −−+
Signal/noise ratio ([2]; 20 mM, 6 d, with light exposure): −−+
Signal/noise ratio ([2]; 200 mM, 2 d, with light exposure): −−+
Signal/noise ratio ([2]; 200 mM, 4 d, with light exposure): −++
Signal/noise ratio ([2]; 200 mM, 5 d, with light exposure): −++
Signal/noise ratio ([2]; 200 mM, 6 d, with light exposure): −++
Signal/noise ratio ([2]; Buffer 2x SSC (20 mM, 4 d, with light exposure)): −−+
Signal/noise ratio ([2]; Buffer 4x SSC (20 mM, 4 d, with light exposure)): −−+
Signal/noise ratio ([2]; Buffer Decal (20 mM, 4 d, with light exposure)): −−+
Signal/noise ratio ([2]; Buffer RNAase later/inhibitor (20 mM, 4 d, with light exposure)): −−+
Signal/noise ratio ([2]; Light exposure Yes (200 mM, 2 d)): −−+
Signal/noise ratio ([2]; Workflow position After Amp1 (20 mM, 2 d, with light exposure)): −−+
Signal/noise ratio ([2]; Workflow position After Amp2 (20 mM, 2 d, with light exposure)): −−+
Signal/noise ratio ([2]; Workflow position After Amp3 (20 mM, 2 d, with light exposure)): −++
Autofluorescence quenching effect [1]: Yes

CC1=CC(=O)C=CC1=O [Methyl-p-benzoquinone]
Autofluorescence quenching effect [1]: No

O.O=C1C(O)=C(O)C(=O)C(O)=C1O [Tetrahydroxy-1,4-quinone hydrate]
Autofluorescence quenching effect [1]: No

O=C1C=CC(=O)C=C1 [p-benzoquinone]
Signal/noise ratio ([2]; 2 mM, overnight, Polr2a, PPIB, UBC, Hprt1): +++
Signal/noise ratio ([2]; 20 mM, 30 min): −−+
Signal/noise ratio ([2]; 100 mM, 30 min): +++
Signal/noise ratio ([2]; 200 mM, 30 min): +++
Signal/noise ratio ([2]; Fluorescent dyes: Alexa dyes): +++
Signal/noise ratio ([2]; Fluorescent dyes: Dylight dyes): +++
effect on tissue autofluorescence [3]: reduced autofluorescence
compatibility with RNA in situ hybridization assay [4]: compatible
Signal/noise ratio [5]: +++
solubility [6]: 100 mM (≈ 10.8 mg/mL)
effect on tissue autofluorescence [7]: effectively reduced autofluorescence
Autofluorescence quenching effect [1]: Yes
IF Signal compared to control (FFPE mouse brain): Weaker
effect on lipofuscin autofluorescence (dot-like and clusters of fluorescence) [8]: partially quenches lipofuscin autofluorescence
effect on lipofuscin autofluorescence (dot-like and clusters of fluorescence) ([8]; listed as p-Benzoquinone): reduced but not completely eliminated
effect on fixation induced haze background ([8]; vs no pBQ control): greatly reduced
IF Signal compared to control (hTMAc): Weaker
target detection with ATTO dye label probes after p-benzoquinone treatment (mouse FFPE liver tissue; ATTO 550 (UBC), ATTO 647N (POLR2A)): did not lead to successful detection
target detection with Dylight label probes after p-benzoquinone treatment (mouse FFPE liver tissue; Dylight 550 (UBC), Dylight 650 (POLR2A)): successfully detected
effect on tissue autofluorescence [9]: reduced autofluorescence
compatibility of autofluorescence quenching treatment with immunofluorescence [10]: compatible with immunofluorescence assays
